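In this assay, cells in 96-well plates receive the compound at five concentrations for 48 hours. Endpoints are linearly interpolated between the surrounding concentrations. The concentration for 50% growth inhibition is given as GI50. TGI: total growth inhibition.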
How the values were obtained:
Assay in all cases: NCI-60 cell line screen, 48 h
[1] = tested on: MDA-MB-231 breast
[2] = tested on: CCRF-CEM leukemia
[3] = tested on: PC-3 prostate
[4] = tested on: RXF 393 renal
[5] = tested on: HOP-92 NSCLC
[6] = tested on: K-562 leukemia
[7] = tested on: ACHN renal
[8] = tested on: SN12C renal
[9] = tested on: HCT-15 colon
[10] = tested on: UACC-62 melanoma

Row | Structure (SMILES) | GI50 [1] | TGI [1] | GI50 [2] | TGI [2] | GI50 [3] | TGI [3] | GI50 [4] | TGI [4] | GI50 [5] | TGI [5] | GI50 [6] | TGI [6] | GI50 [7] | TGI [7] | GI50 [8] | TGI [8] | GI50 [9] | TGI [9] | GI50 [10] | TGI [10]
1 | O=C(Nc1cccc(-c2nc3ccccc3[nH]2)c1)c1cccc(NC(=O)c2ccco2)c1 | 1.98 µM | 4.85 µM | 3.99 µM | 16.1 µM | 2.25 µM | 5.48 µM | 1.51 µM | 3.55 µM | 2.63 µM | 5.89 µM | 2.03 µM | 4.36 µM | 1.68 µM | 3.17 µM | 2.07 µM | 4.88 µM | 3.06 µM | 10.8 µM | 1.79 µM | 3.5 µM
2 | C[C@@H](Oc1cc(-c2cnn(C3CC4(CCNCC4)C3)c2)cnc1N)c1c(F)ccc(Cl)c1Cl | 1.26 µM | 3 µM | 1.31 µM | 6.31 µM | 0.758 µM | 5.79 µM | 1.35 µM | 2.73 µM | 0.54 µM | 3.13 µM | 0.228 µM | 1.4 µM | 2 µM | 7.54 µM | 1.49 µM | 7.1 µM | 1.38 µM | 3.5 µM | 1.55 µM | 3.16 µM
3 | C=C1C(=O)O[C@H]2[C@H]1CC/C(Cn1cc(Cn3ccc4cc(Cl)ccc43)nn1)=C\CC[C@@]1(C)O[C@@H]21 | 1.36 µM | 2.82 µM | 0.338 µM | 1.18 µM | 1.3 µM | 2.87 µM | 1.17 µM | 2.46 µM | 0.489 µM | 1.74 µM | 0.649 µM | 3.1 µM | 1.24 µM | 2.5 µM | 1.5 µM | 3.2 µM | 1.14 µM | 2.66 µM | 1.41 µM | 2.78 µM
4 | COc1cc2c3c(n(CCCn4ccnc4)c(=O)c2cc1OC)-c1ccccc1C3=O | 0.254 µM | 5.19 µM | < 0.01 µM | – | 0.169 µM | > 100 µM | < 0.01 µM | – | 0.0343 µM | 3 µM | < 0.0155 µM | – | < 0.0127 µM | 0.0486 µM | < 0.0467 µM | 5.4 µM | 0.159 µM | 2.37 µM | < 0.0133 µM | 0.0906 µM
5 | O=C(/C=C/c1ccc2c(c1)OCO2)c1ccccc1 | 24.4 µM | 75.6 µM | 19.1 µM | 81.2 µM | 22.5 µM | 58.4 µM | 14.3 µM | 28.7 µM | 15.4 µM | 41.3 µM | 4.42 µM | > 100 µM | 17.5 µM | 40.9 µM | 18.6 µM | 40.6 µM | 16.6 µM | > 100 µM | 16.3 µM | 33.7 µM
6 | O=[N+]([O-])c1ccccc1/C=C/C=C1c2ccccc2-c2ccccc21 | > 100 µM | > 100 µM | > 100 µM | > 100 µM | > 100 µM | > 100 µM | > 100 µM | > 100 µM | > 100 µM | > 100 µM | > 100 µM | > 100 µM | > 100 µM | > 100 µM | > 100 µM | > 100 µM | > 100 µM | > 100 µM | > 100 µM | > 100 µM
7 | Cc1cccc(Oc2ccc(Nc3ncnc4ccc(NC(=O)CN5CCN(C)CC5)cc34)cc2Cl)c1 | 1.66 µM | 3.17 µM | 2.06 µM | 5.21 µM | 1.78 µM | 3.52 µM | 1.61 µM | 3.09 µM | 1.17 µM | 2.59 µM | 1.61 µM | 4.33 µM | 0.655 µM | 1.96 µM | 1.72 µM | 3.44 µM | 1.35 µM | 2.76 µM | 1.84 µM | 3.56 µM
8 | O=C1OC2(c3ccccc31)c1cc(I)c(O)c(I)c1Oc1c2cc(I)c(O)c1I | – | > 100 µM | – | > 100 µM | – | > 100 µM | – | > 100 µM | – | > 100 µM | – | > 100 µM | – | > 100 µM | – | > 100 µM | – | > 100 µM | – | > 100 µM
9 | Nc1nc(F)nc2c1ncn2C1OC(COP(=O)(O)O)C(O)C1O (configuration not stated) | – | 772 µM | – | 202 µM | – | 322 µM | – | 413 µM | – | 71.8 µM | – | 1070 µM | – | 247 µM | – | 145 µM | – | 1080 µM | – | 247 µM
10 | CC(=O)NC(Cc1c[nH]c2ccccc12)C(=O)O (configuration not stated) | – | > 100 µM | – | > 100 µM | – | > 100 µM | – | > 100 µM | – | > 100 µM | – | > 100 µM | – | > 100 µM | – | > 100 µM | – | > 100 µM | – | > 100 µM
11 | O=C(CSc1nc2sc3c(c2c(=O)n1-c1ccccc1)CCCCC3)N/N=C/c1ccc(F)cc1 | 1.04 µM | 3.27 µM | 3.16 µM | > 100 µM | 4.91 µM | 26.8 µM | 2.39 µM | 7.18 µM | 2.47 µM | 8.65 µM | 5.48 µM | > 100 µM | 4.76 µM | 34.6 µM | 1.99 µM | 6.9 µM | 3.77 µM | > 100 µM | 11.4 µM | 27.1 µM
12 | COc1ccc(/C(Cl)=C(\C=O)c2cc(OC)c(OC)c(OC)c2)cc1OC | – | > 100 µM | – | > 100 µM | – | > 100 µM | – | > 100 µM | – | > 100 µM | – | > 100 µM | – | > 100 µM | – | > 100 µM | – | > 100 µM | – | > 100 µM
13 | O=C1C=CC(=O)N1c1ccc2c(c1)Cc1cc(NC(=O)C(F)(F)F)ccc1-2 | – | 32.3 µM | – | 16.9 µM | – | 33.1 µM | – | 23.7 µM | – | 33.1 µM | – | 59.6 µM | – | 16.4 µM | – | 32.1 µM | – | 26.9 µM | – | 30.7 µM
14 | COc1cc(C(=O)O)ccc1NC(=O)[C@@H]1N[C@@H](CC(C)(C)C)[C@](C#N)(c2ccc(Cl)cc2F)[C@H]1c1cccc(Cl)c1F | 6.58 µM | > 100 µM | 2.53 µM | > 26.3 µM | 2.91 µM | > 42.6 µM | 3.55 µM | 10.3 µM | 2.48 µM | 5.15 µM | 4.15 µM | > 100 µM | 0.0496 µM | 6.82 µM | 4.27 µM | > 41.9 µM | 2.93 µM | 10.1 µM | 0.0909 µM | 2.13 µM

Source: PubChem BioAssay (NCI)
